Measurements reported in patent US5919668A, “Non-reducing saccharide and its production and use” (Kabushiki Kaisha Hayashibara Seibutsu Kagaku Kenkyujo, priority 1994, dated 1999).

Target: T1, trehalose-releasing enzyme (Rhizobium sp. M-11, UniProt Q53238)
T1 construct: M-11, about 58-68 kDa
T1 sequence (Q53238 1-596): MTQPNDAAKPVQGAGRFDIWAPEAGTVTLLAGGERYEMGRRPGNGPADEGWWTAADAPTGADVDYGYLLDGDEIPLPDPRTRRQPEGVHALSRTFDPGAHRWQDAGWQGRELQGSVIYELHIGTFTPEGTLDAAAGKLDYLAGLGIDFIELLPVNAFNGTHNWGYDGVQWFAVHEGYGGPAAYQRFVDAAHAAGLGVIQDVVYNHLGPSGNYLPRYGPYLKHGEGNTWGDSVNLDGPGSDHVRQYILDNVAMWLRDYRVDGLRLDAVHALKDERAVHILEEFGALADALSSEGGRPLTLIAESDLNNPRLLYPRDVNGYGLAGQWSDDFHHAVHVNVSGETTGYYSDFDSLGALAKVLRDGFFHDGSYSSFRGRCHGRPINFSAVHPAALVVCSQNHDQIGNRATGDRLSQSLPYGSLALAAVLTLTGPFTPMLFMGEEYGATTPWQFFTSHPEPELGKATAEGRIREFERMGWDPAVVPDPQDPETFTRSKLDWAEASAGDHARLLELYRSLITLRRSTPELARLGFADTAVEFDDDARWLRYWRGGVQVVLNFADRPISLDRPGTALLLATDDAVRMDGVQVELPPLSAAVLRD
Assay type: biochemical, Rhizobium species M-11
Conditions: for Composition: trehalose formed / Composition: reducing saccharide formed: 20% substrate, 2 units/g, 40° C., pH7.0, 48 hours; for Composition: reducing saccharide formed: glucose, maltose, maltotriose, maltotetraose or maltopentaose respectively; for Composition: residual substrate: trehalose-releasing enzyme, 48 h, pH 7
Description: Alpha-glycosyl trehaloses as substrates were prepared in accordance with the method described in Japanese Patent Application No. 349,216/93. More particularly, 20% aqueous solutions of maltotriose, maltotetraose, maltopentaose, maltohexaose or maltoheptaose as reducing partial starch hydrolysate were added with 2 units/g substrate solid of a purified non-reducing saccharide-forming enzyme obtained by the method in […], reacted at 40° C. and pH7.0 for 48 hours, heated for inactivation, filtered, deionized, concentrated in conventional manner and applied to ion exchange column chromatography on a strongly-acidic cation exchange "XT-1016" in sodium form. The ion exchange resin was packed in 3 jacketed-stainless steel columns, inner diameter of 2.0 cm, length of 1 m, and the columns were cascaded, loaded with 5 v/v % reaction saccharide liquid against the resin and injected with 55° C. water at SV0.13 for fractionation while keeping the temperature inside the columns at 55° C., thus obtaining high-purity preparations of non-reducing saccharides with glucose polymerization degrees of 3 or higher.
20% Aqueous solutions of these five types of non-reducing saccharides or alpha-glycosyl trehaloses were prepared, added with 2 units/g substrate solid of the purified trehalose-releasing enzyme obtained in Experiment 15, reacted at 40° C. and pH7.0 for 48 hours, deionized and subjected to high-performance liquid chromatography on "WAKO BEADS WB-T-330" for analysis of reaction products. As control, maltotriose, maltotetraose, maltopentaose, maltohexaose and maltoheptaose were subjected to the purified trehalose-releasing enzyme similarly as above and then analyzed on high-performance liquid chromatography.

Compound	Composition: trehalose formed [%]	Composition: reducing saccharide formed [%]	Composition: residual substrate [%]
OC[C@H]1O[C@H](O[C@H]2O[C@H](CO)[C@@H](O[C@H]3O[C@H](CO)[C@@H](O)[C@H](O)[C@H]3O)[C@H](O)[C@H]2O)[C@H](O)[C@@H](O)[C@@H]1O [PI, alpha-glucosyl trehalose]	17.5	6.5	76.0
OC[C@H]1O[C@H](O[C@H]2O[C@H](CO)[C@@H](O[C@H]3O[C@H](CO)[C@@H](O[C@H]4O[C@H](CO)[C@@H](O[C@H]5O[C@H](CO)[C@@H](O)[C@H](O)[C@H]5O)[C@H](O)[C@H]4O)[C@H](O)[C@H]3O)[C@H](O)[C@H]2O)[C@H](O)[C@@H](O)[C@@H]1O [PIII, alpha-maltotriosyl trehalose]	39.5	60.0	0.5
OC[C@H]1O[C@H](O[C@H]2O[C@H](CO)[C@@H](O[C@H]3O[C@H](CO)[C@@H](O[C@H]4O[C@H](CO)[C@@H](O[C@H]5O[C@H](CO)[C@@H](O[C@H]6O[C@H](CO)[C@@H](O[C@H]7O[C@H](CO)[C@@H](O)[C@H](O)[C@H]7O)[C@H](O)[C@H]6O)[C@H](O)[C@H]5O)[C@H](O)[C@H]4O)[C@H](O)[C@H]3O)[C@H](O)[C@H]2O)[C@H](O)[C@@H](O)[C@@H]1O [PV, alpha-maltopentaosyl trehalose]	29.1	70.6	0.3
OC[C@H]1O[C@H](O[C@H]2O[C@H](CO)[C@@H](O[C@H]3O[C@H](CO)[C@@H](O[C@H]4O[C@H](CO)[C@@H](O[C@H]5O[C@H](CO)[C@@H](O[C@H]6O[C@H](CO)[C@@H](O)[C@H](O)[C@H]6O)[C@H](O)[C@H]5O)[C@H](O)[C@H]4O)[C@H](O)[C@H]3O)[C@H](O)[C@H]2O)[C@H](O)[C@@H](O)[C@@H]1O [PIV, alpha-maltotetraosyl trehalose]	34.2	65.5	0.3
OC[C@H]1O[C@H](O[C@H]2O[C@H](CO)[C@@H](O[C@H]3O[C@H](CO)[C@@H](O[C@H]4O[C@H](CO)[C@@H](O)[C@H](O)[C@H]4O)[C@H](O)[C@H]3O)[C@H](O)[C@H]2O)[C@H](O)[C@@H](O)[C@@H]1O [PII, alpha-maltosyl trehalose]	44.3	44.4	11.3
